Test system: Ucp1
Assay: UCP1 luciferase assay (Ucp1 up-regulation in differentiated inguinal adipocytes of Ucp1-luciferase knock-in mice)
Assay type: cell-based
Details: Mus musculus, Adipocyte, 48 h, 2 days treatment, luciferase activity, read-out: Ucp1 activation fold/corresponding concentration
Experimental: TEST EXAMPLE 1 UCP1 Luciferase Assay
Evaluating Compounds that Induce Ucp1 Up-Regulation
Ucp1-luciferase knock-in mice will be housed in cages and fed on standard chow diets (the detailed procedures please see reference 14). The 8-week-old mice will be killed by the cervical dislocation and put into 75% alcohol for 5 minutes. The inguinal adipose tissue will be dissected out and transferred to the three 10-cm petri dishes and washed with PBS for three times. The adipose tissue will be dissected and minced on a 10-cm petri dish for several minutes and then pipetted into 20 ml 0.1% collagenase solution in 50 ml conical tubes and digested at 37° C. for 1 hour. Next, 20 ml culture medium will be added to terminate the digestion and centrifuged for 10 minutes at 1000 rpm respectively. The supernatants will be removed and the pellets re-suspended in 10 mL culture medium and plated into 10-cm plates. The cells will be left to adhere to the plates overnight and the culture medium will be changed every other day. The confluent cells will be trypsinized, counted and plated to 24-well plate (5×10^4 cells/well). The cells will be washed and re-fed the next day (as day −2). Two days later (day 0), the cells will usually become confluent and be induced to differentiate with MDIR medium. On day 2, the medium will be changed to IR medium and re-fed every 2 days. Complete differentiation is usually achieved by day 10. On day 10, the medium will be changed to the culture medium of 10% FBS/DMEM with indicated drugs along with the positive and negative controls for 2 days. The media will be removed and the cells washed with 1 ml PBS per well three times. Then 100 μl lysis buffer will be used to lyse the cells at 4° C. for 1 hour. 30 μl culture medium, 30 μl cell lysates and 60 μl Steady-Glo® Reagent were added to a well of 96-well-plate and the luminescence will be measured using a luminometer. The protein concentration will be determined using 20 μl cell lysates and specific activity of luciferase will be tabulated and data analyzed.

COc1ccc(-c2csc(NC(C)=O)n2)cc1OC [Compound 29, N-(4-(3,4-dimethoxyphenyl)thiazol-2-yl)acetamide]
fold induction at 0.3 µM: 1.2

Clc1ccc(-c2csc(Nc3ccccn3)n2)cc1 [Compound 63, 4-(4-chlorophenyl)-N-(pyridin-2-yl)thiazol-2-amine]
fold induction at 3 µM: 5.9

c1ccc(Nc2nc(-c3ccccn3)cs2)nc1 [Compound 27, N,4-di(pyridin-2-yl)thiazol-2-amine]
fold induction at 1 µM: 3.3

CCCC(=O)Nc1ccc(-c2csc(Nc3ccccn3)n2)cc1 [Compound 39, N-(4-(2-(pyridin-2-ylamino)thiazol-4-yl)phenyl)butyramide]
fold induction at 1 µM: 3.4

O=C(Nc1cccnc1)c1ccc(-c2csc(Nc3ccccn3)n2)cc1 [Compound 64, 4-(2-(pyridin-2-ylamino)thiazol-4-yl)-N-(pyridin-3-yl)benzamide]
fold induction at 1 µM: 1.1

Cc1ccc(-c2csc(Nc3ccccn3)n2)cc1 [Compound 21, N-(pyridin-2-yl)-4-p-tolylthiazol-2-amine]
fold induction at 3 µM: 2.9

C#Cc1ccc(-c2csc(Nc3ccccn3)n2)cc1 [Compound 78, 4-(4-ethynylphenyl)-N-(pyridin-2-yl)thiazol-2-amine]
fold induction at 1 µM: 2.3

COc1cc(Br)ccc1-c1csc(Nc2ccccn2)n1 [Compound 25, 4-(4-bromo-2-methoxyphenyl)-N-(pyridin-2-yl)thiazol-2-amine]
fold induction at 3 µM: 1.3

COc1cccc(-c2csc(Nc3ccccn3)n2)c1 [Compound 3, 4-(3-methoxyphenyl)-N-(pyridin-2-yl)thiazol-2-amine]
fold induction at 1 µM: 2.8

COc1ccccc1-c1csc(Nc2ccccn2)n1 [Compound 24, 4-(2-methoxyphenyl)-N-(pyridin-2-yl)thiazol-2-amine]
fold induction at 3 µM: 2.7

Cc1cc(-c2csc(Nc3ccccn3)n2)ccc1N [Compound 83, 4-(4-amino-3-methylphenyl)-N-(pyridin-2-yl)thiazol-2-amine]
fold induction at 3 µM: 6

CC(=O)OCc1ccc(-c2csc(Nc3ccccn3)n2)cc1 [Compound 60, 4-(2-(pyridin-2-ylamino)thiazol-4-yl)benzyl acetate]
fold induction at 3 µM: 2.6

COc1ccc(-c2csc(NC(=O)[C@@H]3CCCN3)n2)cc1OC [Compound 70, (S)—N-(4-(3,4-dimethoxyphenyl)thiazol-2-yl)pyrrolidine-2-carboxamide]
fold induction at 0.3 µM: 1.7

Clc1cccc(-c2csc(Nc3ccccn3)n2)c1Cl [Compound 75, 4-(2,3-dichlorophenyl)-N-(pyridin-2-yl)thiazol-2-amine]
fold induction at 3 µM: 1.1

CCOC(=O)N1CCC[C@H]1C(=O)Nc1nc(-c2ccc(OC)c(OC)c2)cs1 [Compound 71, (S)-ethyl 2-(4-(3,4-dimethoxyphenyl)thiazol-2-ylcarbamoyl)pyrrolidine-1-carboxylate]
fold induction at 0.3 µM: 1.7

CCCCOc1ccc(-c2csc(Nc3ccccn3)n2)cc1 [Compound 43, 4-(4-butoxyphenyl)-N-(pyridin-2-yl)thiazol-2-amine]
fold induction at 1 µM: 2.8

CCN(CC)C(=O)c1ccc(-c2csc(Nc3ccccn3)n2)cc1 [Compound 66, N,N-diethyl-4-(2-(pyridin-2-ylamino)thiazol-4-yl)benzamide]
fold induction at 3 µM: 1

O=C(Nc1ccccc1)c1ccc(-c2csc(Nc3ccccn3)n2)cc1 [Compound 58, N-phenyl-4-(2-(pyridin-2-ylamino)thiazol-4-yl)benzamide]
fold induction at 3 µM: 1.4

FC(F)(F)Oc1ccc(-c2csc(Nc3ccccn3)n2)cc1 [Compound 23, N-(pyridin-2-yl)-4-(4-(trifluoromethoxy)phenyl)thiazol-2-amine]
fold induction at 3 µM: 4

c1ccc(Nc2nc(-c3ccncc3)cs2)nc1 [Compound 26, N-(pyridin-2-yl)-4-(pyridin-4-yl)thiazol-2-amine]
fold induction at 3 µM: 3.5

c1ccc(Nc2nc(-c3ccc4c(c3)OCO4)cs2)nc1 [Compound 82, 4-(benzo[d][1,3]dioxol-5-yl)-N-(pyridin-2-yl)thiazol-2-amine]
fold induction at 1 µM: 2.4

CC(=O)Nc1ccc(-c2csc(Nc3ccccn3)n2)cc1 [Compound 36, N-(4-(2-(pyridin-2-ylamino)thiazol-4-yl)phenyl)acetamide]
fold induction at 1 µM: 3.8

CC(C)(C)CNc1ccc(-c2csc(Nc3ccccn3)n2)cc1 [Compound 56, 4-(4-(neopentylamino)phenyl)-N-(pyridin-2-yl)thiazol-2-amine]
fold induction at 3 µM: 2.3

COc1ccc(-c2csc(NC(=O)c3ccccn3)n2)cc1OC [Compound 32, N-(4-(3,4-dimethoxyphenyl)thiazol-2-yl)picolinamide]
fold induction at 3 µM: 2.6

COc1cc(OC)cc(-c2csc(Nc3ccccn3)n2)c1 [Compound 18, 4-(3,5-dimethoxyphenyl)-N-(pyridin-2-yl)thiazol-2-amine]
fold induction at 3 µM: 5.3

CN1CCN(C(=O)c2ccc(-c3csc(Nc4ccccn4)n3)cc2)CC1 [Compound 59, (4-methylpiperazin-1-yl)(4-(2-(pyridin-2-ylamino)thiazol-4-yl)phenyl)methanone]
fold induction at 1 µM: 4

CCNC(=O)c1ccc(-c2csc(Nc3ccccn3)n2)cc1 [Compound 53, N-ethyl-4-(2-(pyridin-2-ylamino)thiazol-4-yl)benzamide]
fold induction at 1 µM: 3

COc1ccc(-c2csc(Nc3ccc(C)cn3)n2)cc1OC [Compound 11, 4-(3,4-dimethoxyphenyl)-N-(5-methylpyridin-2-yl)thiazol-2-amine]
fold induction at 1 µM: 2

Oc1ccc(-c2csc(Nc3ccccn3)n2)cc1 [Compound 41, 4-(2-(pyridin-2-ylamino)thiazol-4-yl)phenol]
fold induction at 1 µM: 3.3

O=C(NO)c1ccc(-c2csc(Nc3ccccn3)n2)cc1 [Compound 74, N-hydroxy-4-(2-(pyridin-2-ylamino)thiazol-4-yl)benzamide]
fold induction at 3 µM: 3

COc1ccc(-c2nc(Nc3ccccn3)sc2C)cc1OC [Compound 19, 4-(3,4-dimethoxyphenyl)-5-methyl-N-(pyridin-2-yl)thiazol-2-amine]
fold induction at 1 µM: 1.6

COCCOCCNC(=O)c1ccc(-c2csc(Nc3ccccn3)n2)cc1 [Compound 62, N-(2-(2-methoxyethoxy)ethyl)-4-(2-(pyridin-2-ylamino)thiazol-4-yl)benzamide]
fold induction at 3 µM: 2.2

COc1ccc(-c2csc(Nc3nc4ccc(C)cc4s3)n2)cc1OC [Compound 14, N-(4-(3,4-dimethoxyphenyl)thiazol-2-yl)-6-methylbenzo[d]thiazol-2-amine]
fold induction at 3 µM: 2.4

c1ccc(Nc2nc(-c3ccc(-c4nn[nH]n4)cc3)cs2)nc1 [Compound 77, 4-(4-(2H-tetrazol-5-yl)phenyl)-N-(pyridin-2-yl)thiazol-2-amine]
fold induction at 3 µM: 1.1

c1ccc(Nc2nc(-c3ccc(-c4ccsc4)cc3)cs2)nc1 [Compound 76, N-(pyridin-2-yl)-4-(4-(thiophen-3-yl)phenyl)thiazol-2-amine]
fold induction at 3 µM: 1.8

CS(=O)(=O)c1ccc(-c2csc(Nc3ccccn3)n2)cc1 [Compound 51, 4-(4-(methylsulfonyl)phenyl)-N-(pyridin-2-yl)thiazol-2-amine]
fold induction at 1 µM: 3.9

Fc1ccc(-c2csc(Nc3ccccn3)n2)cc1 [Compound 22, 4-(4-fluorophenyl)-N-(pyridin-2-yl)thiazol-2-amine]
fold induction at 1 µM: 3.9

O=C(Nc1ccccn1)c1ccc(-c2csc(Nc3ccccn3)n2)cc1 [Compound 69, N-(pyridin-2-yl)-4-(2-(pyridin-2-ylamino)thiazol-4-yl)benzamide]
fold induction at 3 µM: 4.6

O=[N+]([O-])c1ccc(-c2csc(Nc3ccccn3)n2)cc1 [Compound 34, 4-(4-nitrophenyl)-N-(pyridin-2-yl)thiazol-2-amine]
fold induction at 1 µM: 3.8

CCOC(=O)COc1ccc(-c2csc(Nc3ccccn3)n2)cc1 [Compound 44, ethyl 2-(4-(2-(pyridin-2-ylamino)thiazol-4-yl)phenoxy)acetate]
fold induction at 3 µM: 1.9

c1ccc(-c2ccc(-c3csc(Nc4ccccn4)n3)cc2)cc1 [Compound 50, 4-(biphenyl-4-yl)-N-(pyridin-2-yl)thiazol-2-amine]
fold induction at 3 µM: 2.4

c1ccc(Nc2nc(-c3ccc(CN4CCCCC4)cc3)cs2)nc1 [Compound 72, 4-(4-(piperidin-1-ylmethyl)phenyl)-N-(pyridin-2-yl)thiazol-2-amine]
fold induction at 3 µM: 1.8

Brc1cc(N2CCOCC2)ccc1-c1csc(Nc2ccccn2)n1 [Compound 28, 4-(2-bromo-4-morpholinophenyl)-N-(pyridin-2-yl)thiazol-2-amine]
fold induction at 3 µM: 3.2

CC(=O)c1ccc(-c2csc(Nc3ccccn3)n2)cc1 [Compound 73, 1-(4-(2-(pyridin-2-ylamino)thiazol-4-yl)phenyl)ethanone]
fold induction at 3 µM: 1.2
